Results reported in US20070059272A1 (priority 2005, published 2007).
Entries after “also recorded” stand apart in the source; their conditions may differ.

Experiments:
[1] = system: pyocyanin (PCN) production in P. aeruginosa PAO1; type: cell-based, Pseudomonas aeruginosa
[2] = system: PA-I promoter activity in reporter strain PA27853/PLL-EGFP
[3] = target: membrane proteins of P. aeruginosa strain PAO1 (whole fixed cells, membrane fractions, solubilized membrane proteins)
[4] = system: PA-I expression in P. aeruginosa; type: cell-based, Pseudomonas aeruginosa
[5] = system: PA-IL in P. aeruginosa; conditions: cited from earlier work
[6] = system: intestinal epithelial cells; conditions: cited from earlier work; for adhesion of P. aeruginosa to intestinal epithelial cells: 0.6% solution
[7] = target: PA-I (Pseudomonas aeruginosa, UniProt Q05097); conditions: cited from earlier work
[8] = system: membrane fractions of P. aeruginosa (PAO1); experiment: ELISA binding to membrane fractions and solubilized membrane proteins of P. aeruginosa PAO1; set-up: species or system Pseudomonas aeruginosa; conditions: human cytokines, ELISA
[9] = system: PA-I mRNA in PA27853; experiment: PA-I mRNA in PA27853 exposed to Caco-2 cells or cell fractions with and without GalNac; type: cell-based, Pseudomonas aeruginosa; conditions: in the presence of GalNac
Experimental: Using Caco-2 intestinal epithelial cells, the issue of whether components of intestinal epithelial cells themselves played a role in triggering the expression of PA-I was addressed. Strain PA27853 was exposed to media (apical and basolateral) and Caco-2 cell fractions (cytosolic, nuclear, membrane) at various time intervals. PA-I mRNA was measured in PA27853 in response to the various Caco-2 cell media fractions in the presence and absence of GalNac, a sugar that binds specifically to PA-I and prevents P. aeruginosa adherence to Caco-2 cells. Media alone from Caco-2 cells grown in transwells (apical or basolateral) had no effect on PA-I expression. However, Caco-2 cell membrane fractions triggered the accumulation of a very high abundance of PA-I mRNA (>10 fold increase)-an effect that was attenuated in the presence of GalNac (FIG. 7A). These in vitro findings are in agreement with the above mouse studies showing that PA-I can be activated in response to contact with the intestinal epithelium, yet in the unstressed Caco-2 cell system, luminal contents (apical media) had no effect, similar to the control mice. […]

PA-I, sequence (Q05097 whole entry): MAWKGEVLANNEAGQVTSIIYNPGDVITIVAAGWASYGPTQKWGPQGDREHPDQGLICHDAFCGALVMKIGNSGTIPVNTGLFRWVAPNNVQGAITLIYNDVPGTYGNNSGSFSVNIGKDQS

dynorphin
PCN production (OD520 nm) [1]: enhanced PCN production in a dose-dependent manner

C[C@@H](O)C(=O)O [D-lactate]
PA-I promoter activity, candidate compounds in HDMEM [2]: no effect

recombinant human Interferon gamma (IFN-γ) (from UniProt P01579 24-166) (ligand)
percent of bacterial cells that bound IFN-γ [3]: 73%

NC[C@H](O)c1ccc(O)c(O)c1 [norepinephrine]
PA-I expression, in vitro studies [4]: did not change PA-I expression; also recorded: not affected | effect on QS-dependent virulence factor PA-IL [5]: can also affect

OC[C@H]1O[C@H](OCC2O[C@@H](O)[C@H](O)[C@@H](O)[C@@H]2O)[C@H](O)[C@@H](O)[C@H]1O (some centres unmarked) [mellibiose]
adhesion of P. aeruginosa to intestinal epithelial cells [6]: markedly decreased adhesion | barrier function of intestinal epithelial cells [6]: do not alter their barrier function | binding affinity to PA-I [7]: highest binding affinity to date

TGF-β
binding to P. aeruginosa cell membranes [8]: No binding

COC(=O)c1ccccc1N [MA, methyl anthranilate]
effect on ability of U-50,488 to enhance PCN production [1]: inhibited the ability of U-50,488 to enhance PCN production

Oc1ccc2c3c1O[C@H]1c4[nH]c5c(c4C[C@@]4(O)[C@@H](C2)N(CC2CC2)CC[C@]314)C[C@@]1(O)[C@H]2Cc3ccc(O)c4c3[C@@]1(CCN2CC1CC1)[C@H]5O4 [norbinaltorphimine, nor-binaltorphimine]
dose that completely inhibits enhanced PCN production [1]: 200 µM | effect on U-50,488-enhanced PCN production [1]: attenuates enhanced PCN production

EGF: human cytokine tested for membrane binding
binding to P. aeruginosa cell membranes [8]: No binding

IL-10: human cytokine
binding to P. aeruginosa cell membranes [8]: No binding

Nc1ncnc2c1ncn2[C@@H]1O[C@H](COP(=O)(O)OP(=O)(O)O)[C@@H](O)[C@H]1O [ADP]
PA-I expression, nucleosides and nucleotides [2]: no evident inducing effects

OC[C@H]1O[C@@H](n2cnc3c(O)ncnc32)[C@H](O)[C@@H]1O [inosine]
inosine concentration inducing PA-I expression, fold less than adenosine of equivalent effect [2]: 10 fold | onset of PA-I expression compared with adenosine [2]: earlier time point | size of effect on PA-I expression compared with adenosine [2]: greater

CC(=O)N[C@H]1C(O)O[C@H](CO)[C@H](O)[C@@H]1O (stereo partly drawn) [GalNAc, N-acetyl-D-galactosamine]
PA-I mRNA increase in PA27853 densely adhered to Caco-2 cells [9]: nearly completely abolished | PA-I mRNA increase triggered by Caco-2 cell membrane fractions [9]: attenuated | adhesion of P. aeruginosa to intestinal epithelial cells [6]: markedly decreased adhesion | barrier function of intestinal epithelial cells [6]: do not alter their barrier function

Nc1ncnc2c1ncn2[C@@H]1O[C@H](CO)[C@@H](O)[C@H]1O [adenosine]
PA-I expression, nucleosides and nucleotides [2]: both dose- and time-dependent | PA-I promoter activity, candidate compounds in HDMEM [2]: enhanced fluorescence

Nc1ncnc2c1ncn2[C@@H]1O[C@H](COP(=O)(O)O)[C@@H](O)[C@H]1O [AMP]
PA-I expression, nucleosides and nucleotides [2]: no evident inducing effects

C[C@H](O)C(=O)O [L-lactate]
PA-I promoter activity, candidate compounds in HDMEM [2]: no effect

Nc1ncnc2c1ncn2[C@@H]1O[C@H](COP(=O)(O)OP(=O)(O)OP(=O)(O)O)[C@@H](O)[C@H]1O [ATP]
PA-I expression, nucleosides and nucleotides [2]: no evident inducing effects

IL-4: human cytokine
binding to P. aeruginosa cell membranes [8]: No binding

B1: adenosine deaminase: enzyme added to deplete the media of adenosine (protein, UniProt P00813 2-363, looked up)
Adenosine deaminase: AQTPAFDKPKVELHVHLDGSIKPETILYYGRRRGIALPANTAEGLLNVIGMDKPLTLPDFLAKFDYYMPAIAGCREAIKRIAYEFVEMKAKEGVVYVEVRYSPHLLANSKVEPIPWNQAEGDLTPDEVVALVGQGLQEGERDFGVKARSILCCMRHQPNWSPKVVELCKKYQQQTVVAIDLAGDETIPGSSLLPGHVQAYQEAVKSGIHRTVHAGEVGSAEVVKEAVDILKTERLGHGYHTLEDQALYNRLRQENMHFEICPWSSYLTGAWKPDTEHAVIRLKNDQANYSLNTDDPLIFKSTLDTDYQMTKRDMGFTEEEFKRLNINAAKSSFLPEDEKRELLDLLYKAYGMPPSASAGQNL
PA-I expression after depleting adenosine from media of HIF-1-a-activated Caco-2 cells ([2]; Caco-2): even greater increase in PA-I expression
